Test results reported in patent publication US12371421B2, “Solid forms of a PARP7 inhibitor” (Ribon Therapeutics, Inc., priority 2019, dated 2025).
In brackets after ≈: the same amount, converted by molar mass.

Experiment: Approximate solubility of Form A in solvents at room temperature
Type: physicochemical
Procedure: The approximate solubility of Form A was estimated in 27 solvents or co-solvents at room temperature. Approximately 2 mg of solids were weighed into each 3 mL glass vial, to which each of the solvents was added in stepwise until the solids dissolved completely or the total volume reaches 2.0 mL. Solubility ranges were used to guide the solvent selection for polymorph screening described in later examples.

C[C@@H](COCCC(=O)N1CCN(c2ncc(C(F)(F)F)cn2)CC1)Nc1cn[nH]c(=O)c1C(F)(F)F [Form A, 5-[[(2S)-1-(3-oxo-3-[4-[5-(trifluoromethyl)pyrimidin-2-yl]piperazin-1-yl]propoxy)propan-2-yl]amino]-4-(trifluoromethyl)-2,3-dihydropyridazin-3-one]
solubility (organic solvent or mixture, thermodynamic from solid, 1,4-Dioxane): 5000 to 10000 µg/mL (≈ 9.55 to 19.1 mM)
solubility (organic solvent or mixture, thermodynamic from solid, 2-MeTHF): < 1000 µg/mL
solubility (organic solvent or mixture, thermodynamic from solid, ACN): 11000 to 22000 µg/mL (≈ 21 to 42 mM)
solubility (organic solvent or mixture, thermodynamic from solid, ACN/MIBK (1:9) v:v): 2000 to 5000 µg/mL (≈ 3.82 to 9.55 mM)
solubility (organic solvent or mixture, thermodynamic from solid, ACN/MTBE (1:9) v:v): 1200 to 2400 µg/mL (≈ 2.29 to 4.59 mM)
solubility (organic solvent or mixture, thermodynamic from solid, ACN/THF (1:4) v:v): 5000 to 10000 µg/mL (≈ 9.55 to 19.1 mM)
solubility (organic solvent or mixture, thermodynamic from solid, ACN/THF (1:9) v:v): 10000 to 20000 µg/mL (≈ 19.1 to 38.2 mM)
solubility (organic solvent or mixture, thermodynamic from solid, Acetone): > 40000 µg/mL
solubility (organic solvent or mixture, thermodynamic from solid, Acetone/n-Heptane (1:4) v:v): < 1300 µg/mL
solubility (organic solvent or mixture, thermodynamic from solid, Acetone/n-Heptane (1:9) v:v): < 1000 µg/mL
solubility (organic solvent or mixture, thermodynamic from solid, CHCl3): 22000 to 44000 µg/mL (≈ 42 to 84.1 mM)
solubility (organic solvent or mixture, thermodynamic from solid, DCM): 19000 to 38000 µg/mL (≈ 36.3 to 72.6 mM)
solubility (organic solvent or mixture, thermodynamic from solid, DCM/MTBE (1:9) v:v): < 1200 µg/mL
solubility (organic solvent or mixture, thermodynamic from solid, DMAc): 22000 to 44000 µg/mL (≈ 42 to 84.1 mM)
solubility (organic solvent or mixture, thermodynamic from solid, DMSO): > 42000 µg/mL
solubility (organic solvent or mixture, thermodynamic from solid, EtOAc): 1900 to 4800 µg/mL (≈ 3.63 to 9.17 mM)
solubility (organic solvent or mixture, thermodynamic from solid, EtOH): < 1100 µg/mL
solubility (organic solvent or mixture, thermodynamic from solid, IPA): < 1100 µg/mL
solubility (organic solvent or mixture, thermodynamic from solid, IPAc): < 1100 µg/mL
solubility (organic solvent or mixture, thermodynamic from solid, MIBK): < 1000 µg/mL
solubility (organic solvent or mixture, thermodynamic from solid, MTBE): < 1000 µg/mL
solubility (organic solvent or mixture, thermodynamic from solid, MeOH): < 1100 µg/mL
solubility (organic solvent or mixture, thermodynamic from solid, NMP): > 38000 µg/mL
solubility (organic solvent or mixture, thermodynamic from solid, THF): < 1100 µg/mL
solubility (organic solvent or mixture, thermodynamic from solid, Toluene): < 1000 µg/mL
solubility (organic solvent or mixture, thermodynamic from solid, n-Heptane): < 1000 µg/mL
solubility (water, thermodynamic from solid, H2O): < 1100 µg/mL
